Measurements published in patent US11298390B2, “Total flavonoids extract of Gynura formosana Kitam., preparation method therefor and use thereof for treating hyperuricemia” (ZHANGZHOU PIEN TZE HUANG PHARMACEUTICAL CO., LTD., priority 2017, dated 2022).

Key:
[1] = system: mouse model of hyperuricemia; test: Creatinine level in serum of hyperuricemia model mice; assay type: in vivo, Kunming mice; settings: dose 0.0002 g/10 g, once daily 11 days, mean ± SD
Method: (§1) The mouse model of hyperuricemia was established by intraperitoneal injection of xanthine to increase the content of uric acid precursor in the body and thus to increase the generation of uric acid. The mouse model of hyperuricemia was administered via gavage with the total flavonoid extract from Gynura formosana Kitam. The inhibition rates of uric acid and […] in serum of the mouse and the inhibition rate of the activity of xanthine oxidase in the liver of the mouse were recorded to study the effect of the total flavonoid extract on symptoms of gout caused by hyperuricemia.
(§2) The high, medium and low dose groups of the total flavonoid extract were administered via gavage with an aqueous solution of total flavonoid extract from Gynura formosana Kitam. at a dose of 24 mg/10 mL, 12 mg/10 mL, 6 mg/10 mL, respectively. The model group was administered an equal-volume of saline. All of the drugs were administered once daily for continuous 11 days.
(§3) After 1 hour at last administration, the mice received 10% xanthine dissolved in 0.8% CMC-Na via intraperitoneal injection. After 0.5 hours of modeling, the mice were sacrificed and blood was taken from eyeballs. Then the mice were dissected immediately and livers were taken and stored at a low temperature. […]
(§4) The index was calculated by referring to the instructions. […]

[2] = system: mouse model of hyperuricemia; test: Uric acid level in serum of hyperuricemia model mice; assay type: in vivo, Kunming mice; settings: xanthine i.p. hyperuricemia mice, dose 0.0002 g/10 g, once daily 11 days, mean ± SD
Method: as §1, §2, §3, §4

## Oc1ncnc2[nH]ncc12 [allopurinol]
[1]
  Creatinine: 23 ± 1 µM
[2]
  Uric Acid: 22.71 ± 0.27 mg/L
